Measurements as given in US20220127297A1, “Novel Antibacterial 3"-Derivatives Of 4,6-Disubstituted 2,5-Dideoxystreptamine Aminoglycoside Antibiotics” (AGILeBiotics B.V., priority 2018, published 2022).
Values after ≈ are worked out from the molar mass of the structure shown.

What was measured:
[1] = tested on: A. baumannii DSM 105126; experiment: MIC 50, broth micro-dilution, DSM strains; assay type: cell-based, Acinetobacter baumannii; conditions: Acinetobacter baumannii, DSM105126, read-out: MIC 50
From the text: (§1) 3.2 Against Selected Bacteria of the ESKAPE Panel and Enterococcus faecalis (DSM Strains)
(§2) Tested reference compounds. Amikacin sulfate (Cat. No. 01693, Chem-Impex), Gentamicin sulfate (Cat. No. G4918, Sigma Aldrich).
(§3) Microbial strains. Enterococcus faecalis DSM 2570, Klebsiella pneumoniae DSM 26371, Acinetobacter baumannii DSM 105126, Enterobacter cloacae 3MRGN (clinical bronchial aspirate isolate).
(§4) Culture media and equipment. BBL™ Mueller Hinton Broth 2 (Lot. BCBW1143, Cat. No. 70192, Sigma); Trypcase Soy Blood-agar plates (Cat. No. 43001, Biomérieux); Cryoinstant (contains 15% glycerol; Cat. No. 822070ZA, VWR International); GasPak™ EZ Standard Incubation Container (Cat. No. 260671, Becton Dickinson); GasPak™ EZ Campy Container System Sachets (Cat. No. 260680, Becton Dickinson); 96-well deep well plate, 1 mL (Cat. No. 0030506.200, Eppendorf); Plate lid (Cat. No. 0030131.525, Eppendorf); 96-well plate, F-bottom (Cat. No. 260860, Nunc); Incubator (Sartorius Certomat BS-1); Laminar flow (Heraeus HS12); UV/VIS meter (Perkin Elmer Lambda Bio+); Platereader (Tecan Infinite M200 Pro).
(§5) Compound preparation. Compounds were prepared in MH2 media at a concentration of 5 mM and stored at 4° C. For testing, solutions of 128 μM were prepared in MH2, for tests against E. faecalis a solution of 512 μM was prepared. Out of these working solutions, 400 μL was transferred to wells in the first column of 96-well deep well plates. Each compound was transferred in triplicate. Plates were previously filled with 200 μL of MH2 media in all wells except for the wells in the first column. After compound and antibiotic addition, the compounds were serial two-fold diluted by transferring 200 μL from the first to the second column, then from the second to the third column and so on. Finally, 200 μL was removed from the last column.
(§6) Inoculum preparation. Microorganisms used were all revived from 15% glycerol storage in Croinstant tubes at −28° C. by plating them on blood agar plates. A. baumanni, and E. cloacae were grown aerobically at 37° C., E. faecalis was grown microaerophilically at 37° C., and K. pneumoniae was grown aerobically at 37° C. Plates were stored at 4° C. for up to two weeks, after which new plates were prepared from −28° C. A single colony was inoculated in MH2 media and grown at 37° C. and 200 rpm to an optical density (measured by UV/Vis spectroscopy) of 0.6-0.8 at 600 nm. Out of these suspensions, actual inoculums were prepared by diluting them to an optical density of 0.1 in MH2 media. From these inoculums, 200 μL was transferred to each well, resulting in a final compound concentration range of 64 μM-31.3 nM for, K. pneumoniae, A. baumanni, and E. cloacae, and 256 μM-125 nM for E. faecalis. Plates inoculated with E. faecalis were placed inside a GasPak™ Container System with GasPak™ Campy Container System sachets. All plates were incubated at 200 rpm for 18 h under the microorganism culturing conditions mentioned above.
(§7) MIC determination. After 18 h of growth, 200 μL was transferred to a 96-well F-bottom plate. The optical density was determined by a plate reader at 600 nm, with 10 s shaking before reading. Triplicate measurements were averaged, and a growth curve was plotted in Excel. The first column in which the growth reached half the value of maximum growth was determined as the MIC50 value for that particular compound.
(§8) MIC50. The MIC50 of a compound was assigned at which the bacterial growth reached half the value of maximum growth.

[2] = tested on: K. pneumoniae DSM 26371; experiment: MIC 50, broth micro-dilution, DSM strains; assay type: cell-based, Klebsiella pneumoniae; conditions: Klebsiella pneumoniae, DSM26371, K. pneumoniae DSM 26371; read-out: MIC 50
From the text: as §1, §2, §3, §4, §5, §6, §7, §8

N=C(N)NC1[C@@H](O)C(OC2[C@@H](F)[C@H](O[C@H]3OC(CNCCO)[C@@H](O)CC3N)C(N)C[C@H]2NC(=O)[C@@H](O)CCN)O[C@H](CO)[C@H]1O (some centres unmarked) [ABX5045, 6N-2-hydroxy-ethyl-Tobra-AHB-F-Gua]
MIC50 [1]: 0.5 µM (≈ 0.328 µg/mL)
MIC50 [2]: 0.5 µM (≈ 0.328 µg/mL)

N=C(NCC1CCCO1)NC1[C@@H](O)C(OC2[C@@H](F)[C@H](O[C@H]3OC(CN)[C@@H](O)CC3N)C(N)C[C@H]2NC(=O)[C@@H](O)CCN)O[C@H](CO)[C@H]1O (some centres unmarked) [ABX5046, Tobra-AHB-F-Gua tetrahydrofuran-2-yl methyl]
MIC50 [1]: 0.25 µM (≈ 0.174 µg/mL)
MIC50 [2]: 0.5 µM (≈ 0.348 µg/mL)

C[C@@H](N)CCNC(=N)NC1[C@@H](O)C(OC2[C@@H](F)[C@H](O[C@H]3OC(CN)[C@@H](O)CC3N)C(N)C[C@H]2NC(=O)[C@@H](O)CCN)O[C@H](CO)[C@H]1O (stereo partly drawn) [ABX5047, Tobra-AHB-F-Gua (R) 3-amino-butyl]
MIC50 [1]: 0.125 µM (≈ 0.0855 µg/mL)
MIC50 [2]: 0.25 µM (≈ 0.171 µg/mL)

N=C(NCc1ccncc1)NC1[C@@H](O)C(OC2[C@@H](F)[C@H](O[C@H]3OC(CN)[C@@H](O)CC3N)C(N)C[C@H]2NC(=O)[C@@H](O)CCN)O[C@H](CO)[C@H]1O (some centres unmarked) [ABX5048, Tobra-AHB-F-Gua pyridin-4-yl methyl]
MIC50 [1]: 0.5 µM (≈ 0.352 µg/mL)
MIC50 [2]: 0.5 µM (≈ 0.352 µg/mL)

N=C(NCc1cnc[nH]1)NC1[C@@H](O)C(OC2[C@@H](F)[C@H](O[C@H]3OC(CN)[C@@H](O)CC3N)C(N)C[C@H]2NC(=O)[C@@H](O)CCN)O[C@H](CO)[C@H]1O (some centres unmarked) [ABX5050, Tobra-AHB-F-Gua imidazol-5-yl methyl]
MIC50 [1]: 0.5 µM (≈ 0.346 µg/mL)
MIC50 [2]: 0.5 µM (≈ 0.346 µg/mL)

N=C(NCC1CCOC1)NC1[C@@H](O)C(OC2[C@@H](F)[C@H](O[C@H]3OC(CN)[C@@H](O)CC3N)C(N)C[C@H]2NC(=O)[C@@H](O)CCN)O[C@H](CO)[C@H]1O (some centres unmarked) [ABX5051, Tobra-AHB-F-Gua tetrahydrofuran-3-yl methyl]
MIC50 [1]: 0.5 µM (≈ 0.348 µg/mL)
MIC50 [2]: 0.5 µM (≈ 0.348 µg/mL)

NCC[C@H](O)C(=O)N[C@@H]1C[C@H](N)[C@@H](O[C@H]2O[C@H](CN)[C@@H](O)[C@H](O)[C@H]2O)[C@H](O)[C@H]1O[C@H]1O[C@H](CO)[C@@H](O)[C@H](N)[C@H]1O [Amikacin, amikacin, reference compound]
MIC50 [1]: 0.5 µM (≈ 0.293 µg/mL)
MIC50 [2]: 0.5 µM (≈ 0.293 µg/mL)
